From ChEMBL document CHEMBL2331164, “Aspulvinones from a mangrove rhizosphere soil-derived fungus Aspergillus terreus Gwq-48 with anti-influenza A viral (H1N1) activity” (Bioorg Med Chem Lett, 2013)
In brackets after ≈: the same amount, converted by molar mass.

What was measured:
[1] = Cytotoxicity against human A549 cells assessed as cell viability after 72 hrs by MTT assay; assay type: cell-based
Influenza A virus = assay: microbe, parasite or virus in culture; conditions: A/Puerto Rico/8/1934(H1N1), MDCK, 48 h
[2] = molecular target: Neuraminidase (Influenza A virus (A/Puerto Rico/8/1934(H1N1))) (UniProt P03468); assay: Inhibition of inactivated Influenza A virus (A/Puerto Rico/8/1934(H1N1)) neuraminidase using MUNANA as substrate at 100 ug/mL incubated for 60 mins prior to substrate addition measured after 45 mins by fluorescence assay relative to control
[3] = molecular target: Neuraminidase (Influenza A virus (A/Puerto Rico/8/1934(H1N1))) (UniProt P03468); assay: (§1) Inhibition of inactivated Influenza A virus (A/Puerto Rico/8/1934(H1N1)) neuraminidase using MUNANA as substrate incubated for 60 mins prior to substrate addition measured after 45 mins by fluorescence assay
[4] = molecular target: Neuraminidase (Influenza A virus (A/Puerto Rico/8/1934(H1N1)), UniProt P03468); assay: as §1
[5] = Cytotoxicity against MDCK cells assessed as cell viability after 72 hrs by MTT assay; assay type: cell-based, Canis lupus familiaris; conditions: dog

Neuraminidase (Influenza A virus (A/Puerto Rico/8/1934(H1N1))), sequence (P03468 whole entry): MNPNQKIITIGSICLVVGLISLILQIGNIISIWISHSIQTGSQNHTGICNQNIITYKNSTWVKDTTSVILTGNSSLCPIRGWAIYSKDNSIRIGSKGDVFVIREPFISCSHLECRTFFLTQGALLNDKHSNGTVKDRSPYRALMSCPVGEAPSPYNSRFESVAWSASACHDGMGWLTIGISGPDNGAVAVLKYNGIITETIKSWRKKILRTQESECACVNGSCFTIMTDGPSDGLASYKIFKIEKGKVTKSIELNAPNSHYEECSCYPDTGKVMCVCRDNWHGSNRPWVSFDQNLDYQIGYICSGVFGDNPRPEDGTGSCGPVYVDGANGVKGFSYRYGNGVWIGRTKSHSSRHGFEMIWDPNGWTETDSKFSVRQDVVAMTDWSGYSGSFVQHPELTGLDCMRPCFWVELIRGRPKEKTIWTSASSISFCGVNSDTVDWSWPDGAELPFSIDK
Neuraminidase (Influenza A virus (A/Puerto Rico/8/1934(H1N1)), UniProt P03468), sequence (P03468 whole entry): as above

Row | SMILES | CC50 at 72 h [1] [µg/mL] | IC50 (Influenza A virus) [µg/mL] | inhibition [2] [%] | inhibition [3] | IC50 [4] [µM] | CC50 at 72 h [5] [µg/mL]
1 | O=C1O/C(=C/c2ccc(O)cc2)C(O)=C1c1ccc(O)cc1 [ISOASPULVINONE E] | > 250 | 32.3 (≈ 109 µM) | 60 | Dose-dependent effect | 210 | > 250
2 | O=C1O/C(=C(/C(=O)O)c2ccccc2)C(O)=C1c1ccccc1 [PULVIC ACID] | > 250 | 29.1 (≈ 94.4 µM) | – | – | – | > 250
3 | CC(=O)N[C@H]1[C@H]([C@H](O)[C@H](O)CO)OC(C(=O)O)=C[C@@H]1NC(=N)N [ZANAMIVIR] | – | 0.0284 (≈ 0.0855 µM) | – | – | – | –
4 | O=C1O/C(=C\c2ccc(O)cc2)C(O)=C1c1ccc(O)cc1 [ASPULVINONE E] | > 250 | 56.9 (≈ 192 µM) | – | – | – | > 250
